From ChEMBL document CHEMBL5154820 (Eur J Med Chem, 2022)
Active and inactive are the calls of the source. The rule behind the calls is not given here.

Legend:
[1] = molecular target: Tubulin (Sus scrofa, UniProt P02554+P02550); assay: Inhibition of pig brain tubulin polymerization by spectrophotometeric analysis; design: species or system Sus scrofa domesticus
[2] = tested on: HeLa; assay: Antiproliferation activity against human HeLa cells assessed as reduction in cell growth measured after 48 to 72 hrs by CCK-8 assay; format: functional, cell-based
[3] = Antiproliferation activity against human MS751 cells assessed as reduction in cell growth measured after 48 to 72 hrs by CCK-8 assay; format: functional, cell-based
[4] = tested on: SiHa; assay: Antiproliferation activity against human SiHa cells assessed as reduction in cell growth measured after 48 to 72 hrs by CCK-8 assay; format: functional, cell-based
[5] = molecular target: T1, Tubulin beta (Homo sapiens) (UniProt P68371+Q9H4B7+Q13509+P04350+Q3ZCM7+P07437+Q13885+Q9BVA1+Q9BUF5+A6NNZ2); assay: Binding affinity to beta-tubulin colchicine binding site in human HeLa cells assessed as decrease of adduct formation by measuring gray value measured at 25 uM incubated for 2 hrs followed by addition of EBI measured after 1.5 hrs by EBI competition based Western blotting analysis; format: cell-based; conditions: time 3.5 hrs
[6] = molecular target: T1, Tubulin beta (Homo sapiens); assay: Binding affinity to beta-tubulin colchicine binding site in human HeLa cells assessed as decrease of adduct formation by measuring gray value measured at 5 uM incubated for 2 hrs followed by addition of EBI measured after 1.5 hrs by EBI competition based Western blotting analysis; format: cell-based; conditions: time 3.5 hrs
[7] = Retention time of the compound; format: physicochemical
[8] = tested on: A549; assay: Antiproliferation activity against human A549 cells assessed as reduction in cell growth; format: functional, cell-based
[9] = species on record: Bos taurus; assay: Inhibition of calf brain tubulin polymerization upto 50 uM measured after 40 mins by spectrophotometric analysis
[10] = tested on: HCT-116; assay: Antiproliferation activity against human HCT-116 cells assessed as reduction in cell growth; format: functional, cell-based

Question: For COc1cc(-c2ncncc2-c2ccc(SC)cc2)cc(OC)c1OC, which IC50 [1] is on record?
Answer: Its IC50 is 9.3 µM.

Question: What about the IC50 [2] of the same molecule?
Answer: The IC50 was 220 nM.

Question: And the IC50 [3]?
Answer: The IC50 was 130 nM.

Question: What about the IC50 [4] of the same molecule?
Answer: The IC50 was 560 nM.

Question: For CCOc1ccc(-c2cncnc2-c2cc(OC)c(OC)c(OC)c2)cc1C(F)(F)F, which IC50 [1] is on record?
Answer: Its IC50 is > 100 µM.

Question: What about the IC50 [2] of the same molecule?
Answer: The IC50 was 790 nM.

Question: And the IC50 [3]?
Answer: Its IC50 is 25000 nM.

Question: And the IC50 [4]?
Answer: Its IC50 is 20000 nM.

Question: With CNC(=O)c1ccc(-c2cncnc2-c2cc(OC)c(OC)c(OC)c2)cc1 as the molecule, how does the IC50 [2] read?
Answer: The IC50 was 1470 nM.

Question: What about the IC50 [3] of the same molecule?
Answer: The IC50 was 13200 nM.

Question: And the IC50 [4]?
Answer: Its IC50 is 10900 nM.

Question: What does the source list for CC[C@]1(O)C[C@H]2CN(CCc3c([nH]c4ccccc34)[C@@](C(=O)OC)(c3cc4c(cc3OC)N(C=O)[C@H]3[C@@](O)(C(=O)OC)[C@H](OC(C)=O)[C@]5(CC)C=CCN6CC[C@]43[C@@H]65)C2)C1?
Answer: Activity [5]: 0.98; Activity [6]: 1.12

Question: Which IC50 [1] does the source give for CCOc1ccc(-c2cncnc2-c2cc(OC)c(OC)c(OC)c2)cc1 here?
Answer: Its IC50 is 3.7 µM.

Question: And the IC50 [2]?
Answer: The IC50 was 250 nM.

Question: What about the IC50 [3] of the same molecule?
Answer: Its IC50 is 220 nM.

Question: And the IC50 [4]?
Answer: The IC50 was 640 nM.

Question: Which IC50 [1] does the source give for COc1ccc(-c2cncnc2-c2cc(OC)c(OC)c(OC)c2)nc1 here?
Answer: The IC50 was 63.7 µM.

Question: What about the IC50 [2] of the same molecule?
Answer: Its IC50 is 470 nM.

Question: And the IC50 [3]?
Answer: Its IC50 is 830 nM.

Question: What about the IC50 [4] of the same molecule?
Answer: The IC50 was 1750 nM.

Question: With COc1cc(-c2ncncc2-c2ccc3c(c2)OCO3)cc(OC)c1OC as the molecule, how does the IC50 [2] read?
Answer: Its IC50 is 1160 nM.

Question: What about the IC50 [3] of the same molecule?
Answer: The IC50 was 1360 nM.

Question: What about the IC50 [4] of the same molecule?
Answer: The IC50 was 5400 nM.

Question: With COc1ccc(-c2cncnc2-c2cc(OC)c(OC)c(OC)c2)cc1Cl as the molecule, how does the IC50 [1] read?
Answer: The IC50 was 53.1 µM.

Question: What about the IC50 [2] of the same molecule?
Answer: Its IC50 is 320 nM.

Question: What about the Retention_time [7] of the same molecule?
Answer: Its Retention_time is 2.23 min.

Question: What about the IC50 [3] of the same molecule?
Answer: The IC50 was 790 nM.

Question: And the IC50 [4]?
Answer: The IC50 was 1330 nM.

Question: What does the source list for COc1cc(-c2ncncc2-c2ccc(Br)cc2)cc(OC)c1OC?
Answer: IC50 [2]: 500 nM; IC50 [3]: 2840 nM; IC50 [4]: 2960 nM

Question: Which IC50 [8] does the source give for COc1cc(-c2ncncc2-c2cccc3ccccc23)cc(OC)c1OC here?
Answer: The IC50 was 2500 nM.

Question: What about the Activity [9] of the same molecule?
Answer: Its Activity is “Active”.

Question: What about the IC50 [10] of the same molecule?
Answer: The IC50 was 2500 nM.

Question: What does the source list for COc1cc(-c2ncncc2-c2ccc(OCC(F)(F)F)cc2)cc(OC)c1OC?
Answer: IC50 [2]: 10200 nM; IC50 [3]: 9000 nM; IC50 [4]: 33300 nM

Question: For COc1cc(-c2ncncc2-c2ccc(B(O)O)cc2)cc(OC)c1OC, which IC50 [2] is on record?
Answer: The IC50 was 4000 nM.

Question: And the IC50 [3]?
Answer: Its IC50 is 32400 nM.

Question: What about the IC50 [4] of the same molecule?
Answer: Its IC50 is 17500 nM.

Question: Which IC50 [1] does the source give for COc1ccc(-c2cncnc2-c2cc(OC)c(OC)c(OC)c2)cc1O here?
Answer: Its IC50 is 13.4 µM.

Question: And the IC50 [2]?
Answer: Its IC50 is 280 nM.

Question: And the IC50 [3]?
Answer: The IC50 was 830 nM.

Question: And the IC50 [4]?
Answer: The IC50 was 2750 nM.

Question: Which IC50 [2] does the source give for COc1cc2c(c(OC)c1OC)-c1ccc(OC)c(=O)cc1[C@@H](NC(C)=O)CC2 [COLCHICINE] here?
Answer: The IC50 was 42 nM.

Question: And the IC50 [3]?
Answer: Its IC50 is 35 nM.

Question: What about the IC50 [4] of the same molecule?
Answer: Its IC50 is 45 nM.

Question: For COc1cc(-c2ncncc2-c2ccc(C(=O)N(C)C)cc2)cc(OC)c1OC, which IC50 [2] is on record?
Answer: Its IC50 is 790 nM.

Question: And the IC50 [3]?
Answer: The IC50 was 1370 nM.

Question: And the IC50 [4]?
Answer: The IC50 was 20200 nM.

Question: What does the source list for CCOC(=O)Oc1cc(-c2cncnc2-c2cc(OC)c(OC)c(OC)c2)ccc1OC?
Answer: IC50 [1]: > 100 µM; IC50 [2]: 650 nM; IC50 [3]: 780 nM; IC50 [4]: 1890 nM

Question: Which IC50 [1] does the source give for CCOc1ccc(-c2cncnc2-c2cc(OC)c(OC)c(OC)c2)cc1F here?
Answer: Its IC50 is 17.1 µM.

Question: What about the IC50 [2] of the same molecule?
Answer: The IC50 was 470 nM.

Question: And the IC50 [3]?
Answer: The IC50 was 750 nM.

Question: What about the IC50 [4] of the same molecule?
Answer: Its IC50 is 800 nM.

Question: For COc1cc(-c2ncncc2-c2ccc(OC(C)C)cc2)cc(OC)c1OC, which IC50 [2] is on record?
Answer: The IC50 was 8360 nM.

Question: And the IC50 [3]?
Answer: Its IC50 is 33900 nM.

Question: What about the IC50 [4] of the same molecule?
Answer: The IC50 was 9970 nM.

Question: For COc1ccc(-c2cncnc2-c2cc(OC)c(OC)c(OC)c2)cc1F, which IC50 [1] is on record?
Answer: The IC50 was 29.9 µM.

Question: What about the IC50 [2] of the same molecule?
Answer: The IC50 was 500 nM.

Question: And the IC50 [3]?
Answer: The IC50 was 1100 nM.

Question: What about the IC50 [4] of the same molecule?
Answer: The IC50 was 3340 nM.

Question: What does the source list for CCSc1ccc(-c2cncnc2-c2cc(OC)c(OC)c(OC)c2)cc1?
Answer: IC50 [2]: 370 nM; IC50 [3]: 1560 nM; IC50 [4]: 1030 nM

Question: Which IC50 [2] does the source give for COc1cc(-c2ncncc2-c2ccc(C(N)=O)cc2)cc(OC)c1OC here?
Answer: Its IC50 is > 100000 nM.

Question: What about the IC50 [3] of the same molecule?
Answer: The IC50 was > 100000 nM.

Question: What about the IC50 [4] of the same molecule?
Answer: Its IC50 is > 100000 nM.

Question: Which results are given for COc1cc(-c2ncncc2-c2ccc3cc[nH]c3c2)cc(OC)c1OC?
Answer: IC50 [1]: 62.8 µM; IC50 [2]: 770 nM; IC50 [3]: 1090 nM; IC50 [4]: 2180 nM

Question: With COc1ccc(-c2cncnc2-c2cc(OC)c(OC)c(OC)c2)cc1 as the molecule, how does the IC50 [1] read?
Answer: The IC50 was 71.2 µM.

Question: And the IC50 [2]?
Answer: Its IC50 is 1140 nM.

Question: And the IC50 [3]?
Answer: The IC50 was 1300 nM.

Question: What about the IC50 [4] of the same molecule?
Answer: Its IC50 is 2850 nM.
